Laboratory results reported in US20230051589A1, “COMPOUNDS AND COMPOSITIONS FOR TREATING CONDITIONS ASSOCIATED WITH NLRP ACTIVITY” (Novartis AG, priority 2018, published 2023).
pIC50: −log10 of the molar value. Read-outs that look alike come from different tables or passages of the source. One block for each molecule: values may come before it.

System: IL-1β production in PMA-differentiated THP-1 cells
Assay: IL-1β production in PMA-differentiated THP-1 cells stimulated with gramicidin (hTHP-1 assay, 2% fetal bovine serum; Procedures 1-3)
Assay type: cell-based, human
Conditions: hTHP-1 assay containing 2% fetal bovine serum
Summary of the method: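 PMA-primed THP-1 cells (20 ng/ml PMA, 16-18 h) in RPMI with 2% FBS were pre-incubated with compounds for 1 h, from 100 μM downward in 3-fold steps (0.37% DMSO final), then stimulated with 5 μM gramicidin for 2 h. IL-1β in the supernatant was quantified by HTRF.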

[1] = Table B2, class symbols, read-out: IC50
[2] = Table B3, gramicidin stimulation, IL-1β readout, read-out: hTHP-1 IC50
[3] = Table B1, gramicidin stimulation, IL-1β readout, read-out: hTHP-1 IC50 (average)

SMILES: COC1CCc2csc(S(N)(=O)=NC(=O)Nc3c4c(cc5c3CCC5)CCC4)c2C1 (single isomer, unassigned) [Example 855, (R, S) or (S, S)-N′-((1,2,3,5,6,7-hexahydro-s-indacen-4-yl)carbamoyl)-6-methoxy-4,5,6,7-tetrahydrobenzo[c]thiophene-1-sulfonimidamide]
pIC50 [2]: < 4.52

SMILES: CC(O)(CO)c1cc(F)c(S(N)(=O)=NC(=O)Nc2c3c(c(C#N)c4c2CCC4)CCC3)s1 (single isomer, unassigned) [Example 633]
pIC50 [1]: 4.52 to 5.30

SMILES: NS(=O)(=NC(=O)Nc1c2c(cc3c1CCC3)CCC2)c1cc2c(s1)COCC2 (single isomer, unassigned) [Example 694, (S) or (R)-N′-((1,2,3,5,6,7-hexahydro-s-indacen-4-yl)carbamoyl)-4,7-dihydro-5H-thieno[2,3-c]pyran-2-sulfonimidamide]
pIC50 [1]: 4.52 to 5.30

SMILES: CC(C)(O)c1nc(CO)c(S(N)(=O)=NC(=O)Nc2c3c(cc4c2C(=O)CC4)CCC3)s1 (single isomer, unassigned) [Example 807, (S) or (R)-4-(hydroxymethyl)-2-(2-hydroxypropan-2-yl)-N′-((3-oxo-1,2,3,5,6,7-hexahydro-s-indacen-4-yl)carbamoyl)thiazole-5-sulfonimidamide]
pIC50 [2]: 4.52 to 5.30

SMILES: CN(C)S(=O)(=NC(=O)Nc1c2c(cc3c1CCC3)CCC2)c1cc(C(C)(C)O)cs1 (single isomer, unassigned) [Example 357, (R) or (S)-N′-((1,2,3,5,6,7-hexahydro-s-indacen-4-yl)-carbamoyl)-4-(2-hydroxy-propan-2-yl)-N,N-dimeth-ylthiophene-2-sulfonimid-amide]
pIC50 [3]: 4.52 to 5.30

Further lines, results first:

pIC50 [1]: 6.70 to 7.40
SMILES: CC(C)(O)c1ncc(S(N)(=O)=NC(=O)Nc2c3c(c(Cl)c4c2CCC4)CCC3)s1 (single isomer, unassigned) [Example 597, (R) or (S)-N′-((8-chloro-1,2,3,5,6,7-hexahydro-s-indacen-4-yl)carbamoyl)-2-(2-hydroxypropan-2-yl)thiazole-5-sulfonimidamide]

pIC50 [1]: 4.52 to 5.30
SMILES: CC(C)c1cc(S(N)(=O)=NC(=O)Nc2c3c(cc4c2CCC4)CCC3)c(F)cn1 (single isomer, unassigned) [Example 554, (S) or (R)-5-fluoro-N′-((1,2,3,5,6,7-hexahydro-s-indacen-4-yl)carbamoyl)-2-isopropylpyridine-4-sulfonimidamide]

pIC50 [1]: 5.30 to 6.00
SMILES: Cc1c(C2CC2)cc2c(c1NC(=O)N=S(N)(=O)c1cnc(C(C)(C)O)s1)CCC2 (single isomer, unassigned) [Example 562, (S) or (R)-N′-((6-cyclopropyl-5-methyl-2,3-dihydro-1H-inden-4-yl)carbamoyl)-2-(2-hydroxypropan-2-yl)thiazole-5-sulfonimidamide]

pIC50 [3]: 7.40 to 8.10
SMILES: CN(C)Cc1cc(F)c(S(N)(=O)=NC(=O)Nc2c3c(cc4c2CCC4)CCC3)s1 (single isomer, unassigned) [Example 381, (R) or (S)-5-((dimethyl-amino)methyl)-3-fluoro-N′-((1,2,3,5,6,7-hexa-hydro-s-indacen-4-yl)-carbamoyl)thiophene-2-sulfonimidamide]

pIC50 [2]: 5.30 to 6.00
SMILES: CN[C@H](c1ccc(S(N)(=O)=NC(=O)Nc2c3c(cc4c2CC4)CCC3)s1)C1CC1 (single isomer, unassigned) [Example 867, (S, S) or (R, S)-5-(cyclopropyl(methylamino)methyl)-N′-((2,4,5,6-tetrahydro-1H-cyclobuta[f]inden-3-yl)carbamoyl)thiophene-2-sulfonimidamide]

pIC50 (Homo sapiens, THP-1, Table B3, gramicidin stimulation, IL-1β readout, read-out: hTHP-1 IC50): 6.00 to 6.70
SMILES: NS(=O)(=NC(=O)Nc1c2c(cc3c1CCC3)CCC2)c1sc(CNC2CCC2)cc1F (centres unmarked) [Example 726, 5-((Cyclobutylamino)methyl)-3-fluoro-N′-((1,2,3,5,6,7-hexahydro-s-indacen-4-yl)carbamoyl)thiophene-2-sulfonimidamide]
